This note sets out measurements from PubChem BioAssay AID463098 (The Scripps Research Institute Molecular Screening Center, 2010).

Broadly, the inhibition is the share of the control response that was lost under treatment.

Active and inactive are the calls of the source.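 Rule for the calls: active = compounds that block at least 90% of GSTO1 probe labeling in cell lysate; inactive = the rest.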

For the assay, the target named is Glutathione S-transferase omega-1 (Homo sapiens) (UniProt P78417). Put plainly: native GSTO1 blockade in soluble lysate – cell lysate, MDA-MB-435 proteome, gel ABPP, SE-Rh, percent inhibition, late-stage follow-up (AID 463098). Particulars: gel ABPP SE-Rh fluorescence, at 1 µM, stronger effect = higher value.
Chain of Glutathione S-transferase omega-1 (Homo sapiens) (P78417 whole entry, looked up): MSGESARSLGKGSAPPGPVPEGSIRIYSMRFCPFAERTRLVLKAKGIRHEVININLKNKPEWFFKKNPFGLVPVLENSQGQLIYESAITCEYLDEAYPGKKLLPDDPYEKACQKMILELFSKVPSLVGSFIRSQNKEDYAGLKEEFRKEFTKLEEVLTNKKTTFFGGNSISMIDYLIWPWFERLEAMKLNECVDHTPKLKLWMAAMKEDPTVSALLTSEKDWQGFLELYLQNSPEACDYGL
Regarding `Cc1nn(-c2ccccc2)c(Cl)c1CN(C(=O)CCl)c1ccc(Cl)cc1`, the inhibition was 93%. Turning to `CCC(C)N(CC(=O)Nc1cccc(C)c1C)C(=O)CCl` (configuration not stated), the inhibition was 26% (inactive). Turning to `CCCCCCCN(C(=O)CCl)c1cccc(C)c1`, the inhibition is 58% (inactive).

Turning to `CCC1(CC)Cc2ccccc2-c2nc(CCl)[nH]c(=O)c21`, the inhibition is 84% (inactive). On to `COc1cccc(N(C(=O)CCl)C(C(=O)NCCc2ccccc2)c2cccs2)c1` (configuration not stated), for which the inhibition was 75% (inactive). With `O=C(CCl)N(c1ccccc1)C1CCCCC1`, the inhibition is 24% (inactive). As to `COC(=O)CC1C(=O)NC2CCCCC2N1C(=O)CCl` (configuration not stated), the inhibition is 0% (inactive). In the case of `CC(=O)n1cc(N(C(=O)CCl)c2ccc(Cl)cc2)c2ccccc21`, the inhibition is 38% (inactive).

Take `C=CCOc1ccccc1CN(C(=O)CCl)c1ccc2c(c1)OCO2`: the inhibition is 35% (inactive). For the compound `O=c1cc(CCl)nc(Cc2c(Cl)cccc2Cl)[nH]1`, the inhibition is 59% (inactive). On to `COC(=O)C1Cc2ccccc2CN1C(=O)CCl` (configuration not stated), for which the inhibition is 40% (inactive). With `Cc1ccc2c(c1)c1c3n2CCN(C(=O)CCl)C3CCC1` (configuration not stated), the inhibition was 96%. Consider `O=c1cc(CCl)nc2scc(-c3ccccc3)n12`, for which the inhibition was 22% (inactive). On to `CC1CCc2c(sc3nc(C(C)(C)C)nc(N4CCN(C(=O)CCl)CC4)c23)C1` (configuration not stated), for which the inhibition is 48% (inactive). Take `CC1CCCN(C(=O)CCl)C1` (configuration not stated): the inhibition was 34% (inactive). `CC(C)N(CC(=O)Nc1ccc(Cl)cc1C(F)(F)F)C(=O)CCl`: the inhibition was 7% (inactive).

`O=C(CCl)N(C/C=C/c1ccccc1)c1ccc2c(c1)OCCO2`: the inhibition is 58% (inactive). With `COc1cc2c(cc1OC)C(c1ccccc1)N(C(=O)CCl)CC2` (configuration not stated), the inhibition is 81% (inactive). As for `Cc1cccc(CN2CCN(C(=O)CCl)CC2)c1`, the figure is 90%; as for `COc1ccccc1NS(=O)(=O)c1ccc2nc(CCl)[nH]c2c1`, 88% (inactive); as for `COC(CN(C(=O)CCl)C(C(=O)NC1CCCCC1)c1ccccc1C)OC` (configuration not stated), 0% (inactive). For the compound `N#CCCN(C(=O)CCl)c1cccc(Cl)c1`, the inhibition is 69% (inactive). For the compound `O=C(NC1CCCCC1)C(c1cccnc1)N(C(=O)CCl)c1cccc(Cl)c1` (configuration not stated), the inhibition was 100%. As for `CCCCCCCN(C(=O)CCl)c1ccccc1C`, the figure is 51% (inactive).

As for `COc1ccc(N(C(=O)CCl)C(C(=O)NC2CCCCC2)c2cccnc2)cc1` (configuration not stated), the inhibition is 97%. On to `COc1cc2c(cc1OC)C(c1cc(Br)ccc1F)N(C(=O)CCl)CC2` (configuration not stated), for which the inhibition is 80% (inactive). Regarding `O=S(=O)(c1ccc(Cl)cc1)N1CCC2(CC1)CO2`, the inhibition was 94%. As for `COc1ccc(N(C(=O)CCl)C(C(=O)NCCc2ccccc2)c2cccs2)cc1Cl` (configuration not stated), the inhibition was 100%. As for `Cc1ccc2c(c1)c(=O)c1c3n2CCN(C(=O)CCl)C3CC1` (configuration not stated), the figure is 57% (inactive). Regarding `CCOC(=O)c1sc(N(Cc2ccccc2)C(=O)CCl)nc1C`, the inhibition was 82% (inactive). As for `CCOC(=O)N1CCN(C(=O)CCl)CC1`, the figure is 22% (inactive). As for `Cc1ccc(N(Cc2cc(=O)[nH]c3ccccc23)C(=O)CCl)cc1`, the figure is 41% (inactive); as for `O=C(NC1CCCC1)C(c1ccc(F)cc1)N(Cc1ccccc1Cl)C(=O)CCl` (configuration not stated), 61% (inactive); as for `CCOc1ccc(CN(C)C(=O)CCl)cc1`, 47% (inactive). Regarding `Cc1nn(-c2ccccc2)c(Cl)c1CN(C(=O)CCl)c1cccc2ccccc12`, the inhibition was 34% (inactive). Turning to `O=C(CCl)N1CCN(S(=O)(=O)c2ccc3ccccc3c2)CC1`, the inhibition is 100%. As for `CN(Cc1ccc(Cl)s1)C(=O)CCl`, the figure is 83% (inactive); as for `O=C(NCCc1ccccc1)C(c1cccs1)N(C(=O)CCl)c1ccc(Cl)cc1` (configuration not stated), 88% (inactive); as for `O=c1cc(CCl)nc2sc3ccccc3n12`, 83% (inactive). Consider `CC(C)CCn1c(=O)c2ccccc2n2c(CCl)nnc12`, for which the inhibition is 87% (inactive). Turning to `O=Cc1[nH]c2ccccc2c1N(C(=O)CCl)c1ccc([N+](=O)[O-])cc1`, the inhibition is 75% (inactive). The result for `Cc1nn(-c2ccc(Cl)cc2)c2[nH]c(CCl)cc(=O)c12` reads 26% (inactive). The result for `O=C(CCl)N(Cc1ccccc1)c1ccccc1` reads 56% (inactive); that for `Cc1cccc(N(Cc2cc(=O)[nH]c3ccccc23)C(=O)CCl)c1`, 82% (inactive). As for `COc1ccc(CN(CCC(c2ccccc2)c2ccc(OC(C)C)cc2)C(=O)CCl)cc1OC` (configuration not stated), the figure is 81% (inactive). With `COCCN(C(=O)CCl)C(C(=O)NC1CCCCC1)c1ccccc1C` (configuration not stated), the inhibition is 25% (inactive).

For the compound `COc1ccc(C(CCN(Cc2ccc(OC)c(OC)c2)C(=O)CCl)c2ccccc2)cc1` (configuration not stated), the inhibition is 100%.

Take `COc1cccc(-c2nc(CCl)cs2)c1`: the inhibition was 50% (inactive). The result for `COc1ccc(C(C(=O)NC2CCCCC2)N(C(=O)CCl)c2ccc(C)cc2)cc1` (configuration not stated) reads 82% (inactive); that for `O=C(CCl)N1c2ccccc2OCC1c1ccccc1` (configuration not stated), 37% (inactive). With `Cc1ccc(N(C(=O)CCl)C(C(=O)NC2CCCCC2)c2cccnc2)cc1C` (configuration not stated), the inhibition was 76% (inactive). As to `CCCN(C(=O)CCl)C1=CCCCC1`, the inhibition is 0% (inactive). For `O=C(O)C1Cc2ccccc2CN1C(=O)CCl` (configuration not stated), the inhibition was 84% (inactive).

Take `CN(Cc1ccc(Cl)cc1)C(=O)CCl`: the inhibition was 18% (inactive). On to `CCc1ccc(-c2nc(CCl)cs2)cc1`, for which the inhibition is 40% (inactive). With `Cc1ccc(NC(=O)Cc2nc(CCl)cs2)cc1`, the inhibition was 55% (inactive).

`O=C(CCl)N(Cc1cc(=O)[nH]c2ccccc12)c1ccccc1`: the inhibition is 38% (inactive). With `O=c1[nH]c(CCl)nc2cc(-c3ccc(F)cc3)sc12`, the inhibition was 100%. Turning to `CN(C)C(=O)CN1CCN(C(=O)CCl)CC1`, the inhibition was 3% (inactive).

In the case of `CC1CCN(C(=O)CCl)CC1`, the inhibition was 53% (inactive).

Turning to `CC(=O)n1cc(N(C(=O)CCl)c2ccccc2)c2ccccc21`, the inhibition was 0% (inactive). As for `CCCCCCN(C(=O)CCl)c1ccccc1`, the figure is 43% (inactive); as for `COc1ccc(N(C(=O)CCl)C(C(=O)NCCc2ccccc2)c2cccs2)cc1` (configuration not stated), 86% (inactive); as for `COc1ccc(C(C(=O)NC2CCCCC2)N(C(=O)CCl)c2ccc(Cl)cc2)cc1` (configuration not stated), 100%. The result for `COc1ccc(N(Cc2cc(=O)[nH]c3ccccc23)C(=O)CCl)cc1` reads 38% (inactive); that for `O=C(NC1CCCCC1)C(c1cccnc1)N(C(=O)CCl)c1ccc(F)cc1` (configuration not stated), 100%; that for `O=C(CCl)N1c2ccccc2SCC1c1ccccc1` (configuration not stated), 65% (inactive). Take `O=C(CCl)N(CCc1ccccc1)CCc1ccccc1`: the inhibition is 57% (inactive). The result for `CC(=O)n1cc(N(C(=O)CCl)c2ccc(C)cc2)c2ccccc21` reads 70% (inactive).

For `O=C(CCl)N(c1ccc(Cl)cc1)c1c[nH]c2ccccc12`, the inhibition is 23% (inactive). As for `COc1ccc(C(C(=O)NC2CCCCC2)N(C(=O)CCl)c2cccc(Cl)c2)cc1` (configuration not stated), the figure is 100%; as for `CCCCCn1c(=O)c2ccccc2n2c(CCl)nnc12`, 73% (inactive).
